Data: US6017958A, “Method of treating malignant tumors with thyroxine analogues having no significant hormonal activity” (Octamer, Inc., priority 1997, dated 2000)

What was measured:
[1] = tested on: seven human cancer cell lines; assay: Cytocidal action on human cancer cell lines; type: cell-based
Protocol: Seven human cancer cell lines were obtained from the American Tissue Culture Collection (Rockville, Md.) and maintained in the recommended growth media. Cells were seeded into wells (2 cm^2) at a density of 2×10^4 cells/cm^2. Various concentrations of Compounds 1-13 were added to the media at the time of seeding.
The cultures were incubated for 72 hours at 37° C. (5% CO2 atmosphere). Following incubation, cells were detached with trypsin and counted in a hemocytometer.

[2] = tested on: E-ras 20 cells (E-ras transformed bovine endothelial cells); assay: Tumorigenicity of pretreated E-ras 20 cells in athymic nude mice; type: in vivo, bovine cells in nude mice; conditions: 10 μM, 4 days pretreatment; tumor size at day 25
Protocol: E-ras transformed bovine endothelial cells (Bauer et al., 1996, Intl. J. Oncology 8:239-252) were exposed to 10 μM DIME for […]. The DIME-treated cells (10^5 or 10^6 cells/100 μL) were injected subcutaneously into nude mice and tumor progression followed for 25 days.
Tumorigenicity of E-ras 20 Cells in athymic nude mice was assayed as described previously. Bauer et al., 1996, "Modification of growth related enzymatic pathways and apparent loss of tumorigenicity of a ras-transformed bovine endothelial cell line by treatment with 5-iodo-6-amino-1,2-benzopyrone (INH2 BP)" Intl. J. Oncol. 8:239-252. The in vivo antitumorigenic action of DIME was assayed on athymic mice inoculated with 10^6 MDA-MB-231 cells, as in the tumorgenicity assay. In about 10-14 days when subcutaneous tumors appeared, DIME treatment consisting of p.o. administration of DIME suspension (once a day) was commenced and continued for 28-32 days as reported, Kun et al., 1996, "Induction of tumor apotosis by methyl-3,5-diiodo-4-(4'-methoxyphenoxy) benzoate (DIME)", Abstract No. 102, Int. J. Oncol. 9:supplement 829.
The structural specificity of DIME and its homologs and analogs can be assessed by examining Table 7 and Table 8. We have prepared 17 novel structural analogs of DIME and compared the antitumor activity of 10 of the compounds (Table 8) which appears sufficient to draw some general conclusions. The biological assay chosen was the determination of antitumorigenic action of the drugs on the in vivo tumorigenicity of E-ras cells in nude mice, Bauer et al., 1996, "Modification of growth related enzymatic pathways and apparent loss of tumorigenicity of a ras-transformed bovine endothelial cell line by treatment with 5-iodo-6-amino-1,2-benzopyrone (INH2 BP)" Intl. J. Oncol. 8:239-252. E-ras 20 cells (10^5 or 10^6) were incubated with 10 μM DIME or analogs for 4 days, then 10^5 and 10^6 cells were inoculated subcutaneously into nude mice (5 per test) and rates of tumor formation quantitated by direct tumor volume measurements (cf. 2). […] Identical antitumorigenic tests were performed with nine DIME analogs and taking the effect of DIME as 100% (comparing tumor sizes at day 25) the antitumor efficacy was calculated as percent of DIME activity. […] Results summarized in Table 8 illustrate that substituents in R1 and R2 determine antitumor efficacy.
The efficacy of DIME analogs on in vivo tumorigenicity of Eras 20 cells i
athymic mice was compared to that of DIME (compound 1) which was taken as
100, determining the size of tumor reduction at day 25. Pretreatment with
DIME or its analogs (Table 7) was with 10 μM for 4 days prior to s.c.

[3] = tested on: microtubule protein (MTP); assay: Microtubule protein (MTP) polymerization optical test; type: biochemical, bovine or rabbit; conditions: for Percent inhibition of initial velocity of microtubule assembly: 10 μM, 1 mM GTP, 37° C.
Protocol: Preparation of MTP and an optical test for polymerization was adopted from published methods, Gaskin, et al., 1974, "Turbidimetric studies of the in vitro assembly and disassembly of porcine neurotubules", J. Mol. Biol. 89:737-758; Tiwari, et al., 1993, "A pH and temperature-dependent cycling method that doubles the yield of microtubule protein", Anal. Biochem. 215:96-103. Bovine or rabbit brain was homogenized in an equal volume of ice cold buffer containing 100 mM Pipes/K^+ (pH 7.4), 4 mM EGTA, 1 mM MgCl2, 0.5 mM DTT and 0.1 mM PMSF, and centrifuged at 39,000 g for 1 hour at 4° C. To the supernatant, DMSO (8% final concentration) and GTP (1 mM final concentration) were added, followed by incubation at 37° C. for 30 minutes. Microtubules were pelleted at 100,000 g at 37° C for 30 minutes. The pellets were incubated on ice for 15 minutes, followed by resuspension in ice cold PEM buffer (100 mM Pipes/K+(pH 6.9), 1 mM EGTA, 1 mM MgCl2). This warm polymerization and cold depolymerization cycle was repeated once more and the cold, resuspended monomeric MTP (8-10 mg/ml protein) was used for the optical test for polymerization kinetics. Both rabbit or bovine brain yielded identical MTP preparations.
The composition of the optical test is described in the legends of Figures and Table 12. The polymerization reaction was started by the addition of 100 μl of MTP solution (equivalent to 0.8-1.0 mg protein) and initial linear rates of increase in absorbance at 350 nm followed and recorded at 37° C. (see FIG. 1) in a Perkin-Elmer 552 double beam spectrophotometer, equipped with a thermostatically controlled cuvette holder.
[…] Microtubule assembly at 37° C. was monitored at λ=350 nm and initial velocities were calculated as mA350 /min. […] The values are averages of duplicate assays.

protein phosphatase 2A = assay: Activation of purified protein phosphatase 2A (32P-histone H1 dephosphorylation); type: biochemical; conditions: 50 μM
Protocol: 2.1 Preparation of ^32 P-labeled Histone H1 Substrate
Histone H1 was phosphorylated with protein kinase C (Upstate Biotechnology,Inc., Lake Placid, N.Y.) in a volume of 100 μL according to standard protocols. Alternatively, histone H1 was phosphorylated with p34cdc2 kinase purified from rapidly multiplying Mytilus Edulis embryos at 4-8 stage after isolation with the p^13 -Suc agarose technique (Smythe and Newport, 1992, "Coupling of Mitosis to the Completion of S Phase in Xenopus Occurs via Modulation of the Tyrosine Kinase that Phosphorylates p34cdc2," Cell 68:787-797).
125 ng purified protein phosphatase 2A (Upstate Biotechnology, Inc., Lake Placid, N.Y.; Usui et al., 1983, J. Biol. Chem. 258:10455-10463) was preincubated with thyroxine analogue (50 μM) in buffer (20 mM MOPS or Tris, pH 7.5, 1 mM MgCl2, 60 μM β-mercaptoethanol) for 10 min. at 23° C. Total reaction volume was 20 μL. ^32 P-labeled histone H1 substrate (10 μg, 10^5 cpm) was added and the dephosphorylation reaction allowed to proceed for 5 min. at 23° C., after which time the reaction was quenched by addition of 2 μL Laeimli buffer. An identical reaction containing 125 ng untreated protein phosphatase 2A was run as a control.
Phosphorylated and dephosphorylated histone H1 were separated by gel electrophoresis (12% SDS-PAGE), bands containing phosphorylated histone H1 excised and assayed for ^32 P activity via scintillation counter.
The velocity of dephosphorylation in 5 min. is an indication of the initial velocity (Vinit) of the dephosphorylation reaction.

MDA-MD-231 cells = assay: Inhibition of tumor cell growth; type: cell-based, human; conditions: 3 days; for Cells (growth): control 0.95
Protocol: MDA-MD-231 human cancer cells were obtained from the American Tissue Culture Collection (Rockville, Md.) and maintained in the recommended growth media. Cells were grown in the presence of various concentrations of Compounds 1 and 14 for 3 days at 37° C.

MDA-MB-231 cells = assay: Immunocytochemistry of mitotic spindle and spindle-associated proteins; type: cell-based, human; conditions: 100 nM, 18 hrs; data not shown
Protocol: Cells were fixed in methanol at -20° C. for 5 min. The primary antibody was mouse monoclonal anti-beta tubulin (Amersham) and secondary antibody from goat, conjugated to fluorescein isothiocyanate from Cappel (Durham, N.C., USA). The DNA of nuclei was stained by 10 min of incubation in 0.05 μg/ml 4'-6-diamidono-2-phenylindole (DAPI). Stained cells were viewed with either a Zeiss 40xPlan-Neofluar or a Nikon 60xPlanApo objective. For classification of cells in the mitotic phase, prophase and metaphase were combined into a single category, because it was difficult to distinguish late prophase from metaphase.
In preliminary studies (data not shown) we have also studied the behavior of certain spindle-associated proteins by the immunocytologic technique.

Row | SMILES | Efficacy (inhibition of E-ras 20 tumorigenicity, DIME = 100) [2] | Percent inhibition of initial velocity of microtubule assembly [3] | also measured
1 | CCOc1ccc(Oc2c(I)cc(C(=O)OC)cc2I)cc1 [Compound 2, Methyl 3,5-diiodo-4-(4'-ethoxyphenoxy)benzoate] | 93% | 76% | Emax ([1]; 72 hours, human cancer cells, read-out: maximal cytocidal activity as compared to DIME): 25 to 30%
2 | CCCOc1ccc(Oc2c(I)cc(C(=O)OC)cc2I)cc1 [Compound 3, Methyl 3,5-diiodo-4-(4'-n-propoxyphenoxy)benzoate] | 44% | – | activation of protein phosphatase 2A (protein phosphatase 2A): did not activate; Activity/5 min (initial velocity of histone H1 dephosphorylation) (protein phosphatase 2A; 10 min preincubation, control 10217 ± 1708, average of three samples): 7521 ± 1562 cpm; activity in cellular assays and in vivo [1]: completely inactive
3 | CCCCOc1ccc(Oc2c(I)cc(C(=O)OC)cc2I)cc1 [Compound 4, Methyl 3,5-diiodo-4-(4'-n-butoxyphenoxy)benzoate] | 4% | 8% | –
4 | CCOC(=O)c1cc(I)c(Oc2ccc(OC)cc2)c(I)c1 [Compound 5, Ethyl 3,5-diiodo-4-(4'-methoxyphenoxy)benzoate] | 83% | 35% | activity in cellular assays and in vivo [1]: completely inactive
5 | COc1ccc(Oc2c(I)cc(C(=O)O)cc2I)cc1 [Compound 6, 3,5-diiodo-4-(4'-methoxyphenoxy)benzoic acid] | 45% | 0% | inhibitory effect on MTP polymerization ([3]; methyl ester replaced): completely abolishes the inhibitory effect on MTP polymerization
6 | COc1ccc(Oc2c(I)cc(C(N)=O)cc2I)cc1 [Compound 7, 3,5-diiodo-4-(4'-methoxyphenoxy)benzamide] | 53% | 43% | –
7 | CNC(=O)c1cc(I)c(Oc2ccc(OC)cc2)c(I)c1 [Compound 8, 3,5-diiodo-4-(4'-methoxyphenoxy)-N-methyl benzamide] | 22% | – | –
8 | COc1ccc(Oc2c(I)cc(C(=O)N(C)C)cc2I)cc1 [Compound 9, 3,5-diiodo-4-(4'-methoxyphenoxy)-N,N-dimethyl benzamide] | 64% | 6% | –
9 | COC(=O)c1cc(I)c(Oc2ccc(O)cc2)c(I)c1 [Compound 10, Methyl 3,5-diiodo-4-(4'-hydroxyphenoxy) benzoate] | 14% | – | –
10 | COC(=O)c1cc(I)c(Oc2ccc(OC)cc2Cl)c(I)c1 [Compound 14, Methyl 3,5-diiodo-4-(2'-chloro-4'-methoxyphenoxy)benzoate] | – | – | Cells (growth) (MDA-MD-231 cells; 0.5 μM): 0.95 ×10^6; Cells (growth) (MDA-MD-231 cells; 1.0 μM): 0.71 ×10^6; Cells (growth) (MDA-MD-231 cells; 2.0 μM): 0.20 ×10^6; inhibitory activity as compared to DIME (MDA-MD-231 cells): about 25%
11 | COC(=O)c1cc(I)c(Oc2ccc(OC(F)(F)F)cc2)c(I)c1 [Compound 18] | – | 7% | –
12 | C=C1[C@@H](O)[C@@H]2O[C@]3(CC[C@H](/C=C/[C@@H](C)[C@@H]4CC(C)=C[C@@]5(O[C@H](C[C@@](C)(O)C(=O)O)CC[C@H]5O)O4)O3)CC[C@H]2O[C@@H]1[C@@H](O)C[C@H](C)[C@H]1O[C@@]2(CCCCO2)CC[C@H]1C [okadaic acid, reference compound] | – | – | cdc-2 kinase- and pp2a-spindle association (MDA-MB-231 cells): abolished only cdc-2 kinase- and pp2a-spindle association
